Earlier results on 1 compound are cited in patent US8318201B2, “Method of stabilizing diarylvinylene compound” (Kyowa Hakko Kirin Co., Ltd., priority 2003, dated 2012).

The conditions of this data set: Bioorg. Med. Chem. Lett., vol. 7, p. 2349-2352 (1997); particularly unstable in a state of a solution.

As for `CCn1c(=O)c2c(nc(/C=C/c3ccc(OC)c(OC)c3)n2C)n(CC)c1=O` [Compound 1, (E)-8-(3,4-dimethoxystyryl)-1,3-diethyl-7-methyl-3,7-dihydro-1H-purine-2,6-dione], the “stability under irradiation of light (isomerization at the vinylene moiety)” value was “unstable particularly under irradiation of light”.
